Assay results published in patent publication US9242984B2, “Pyrazolyl derivatives as Syk inhibitors” (Merck Sharp & Dohme Corp., priority 2012, dated 2016).
Like-named read-outs stand apart in the source and are kept apart here.

Target: T1, recombinant human Syk (GST-hSyk fusion protein) (Homo sapiens, UniProt P43405)
T1 construct: purchased Carna Biosciences 08-176
Experiment: Homogeneous Time-Resolved Fluorescence (HTRF) assay for the recombinant human Syk enzyme
Assay type: biochemical
Conditions: 10-dose titration, 25 μM ATP
Method in brief: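 GST-hSyk (5 pM) preincubated 10 min with compound (0.1% DMSO) in 15 mM Tris-HCl pH 7.5, 2 mM DTT; reaction started with 250 nM biotinylated peptide, 5 mM Mg, 25 μM ATP, 45 min, room temperature. EDTA quench, Eu-anti-phosphotyrosine/SA-APC HTRF read after 30 min; IC50 from 10-dose titration (10 μM–0.508 nM), four-parameter fit.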

[1] = IC50 class, read-out: rhSYK Activity

Cc1cc(Nc2nccc(C(F)(F)F)n2)cc(-c2cnn(CC3(O)CCNCC3)c2)c1 [Example 12.1, 4-((4-(3-methyl-5-((4-(trifluoromethyl)pyrimidin-2-yl)amino)phenyl)-1H-pyrazol-1-yl)methyl)piperidin-4-ol]
IC50 (read-out: rhSYK IC50): 110 nM
IC50 [1]: 100 to 1000 nM

Cc1cc(Nc2nccc(C(F)(F)F)n2)cc(-c2cnn(C3C=CCCC3)c2)c1 (stereo not shown) [Example 1.5, N-[3-(1-cyclohex-2-en-1-yl-1H-pyrazol-4-yl)-5-methylphenyl]-4-(trifluoromethyl)-pyrimidin-2-amine]
IC50 [1]: ≤ 100 nM

Cc1cc(Nc2cc(C(C)(F)F)ccn2)nc(-c2cnn(CC3CNC(=O)O3)c2)c1 (stereo not shown) [Example 3.85, 5-{[4-(6-{[4-(1,1-difluoroethyl)pyridin-2-yl]amino}-4-methylpyridin-2-yl)-1H-pyrazol-1-yl]methyl}-1,3-oxazolidin-2-one]
IC50 [1]: ≤ 100 nM

COC1CC(O)(Cn2cc(-c3cc(C)cc(Nc4nccc(C)n4)c3)cn2)C1 (stereo not shown) [Example 12.3, 3-methoxy-1-[(4-{3-methyl-5-[(4-methylpyrimidin-2-yl)amino]phenyl}-1H-pyrazol-1-yl)methyl]-cyclobutanol]
IC50 [1]: ≤ 100 nM

Cc1cc(Nc2cc(C3CC3)ccn2)nc(-n2cc(CCC(=O)O)cn2)c1 [Example 18.3, 3-(1-{6-[(4-cyclopropylpyridin-2-yl)amino]-4-methylpyridin-2-yl}-1H-pyrazol-4-yl)propanoic acid]
IC50 [1]: ≤ 100 nM

Cc1cc(Nc2nccc(C(C)C)n2)cc(-c2cnn(CCC(N)=O)c2)c1 [Example 2.8, 3-[4-(3-methyl-5-{[4-(1-methylethyl)-pyrimidin-2-yl]-amino}phenyl)-1H-pyrazol-1-yl]propanamide]
IC50 [1]: ≤ 100 nM

Cc1cc(Nc2nccc(C(F)(F)F)n2)cc(-c2cnn3ccccc23)c1 [Example 1.1, N-(3-methyl-5-(pyrazolo[1,5-a]pyridin-3-yl)phenyl)-4-(trifluoromethyl)pyrimidin-2-amine]
IC50 (read-out: rhSYK IC50): 65.8 nM
IC50 [1]: ≤ 100 nM

Cc1cc(Nc2nccc(C(F)(F)F)n2)cc(-c2cnn(C[C@H]3COC(=O)N3)c2)c1 [Example 3.96, (4S)-4-{[4-(3-methyl-5-{[4-(trifluoromethyl)pyrimidin-2-yl]amino}phenyl)-1H-pyrazol-1-yl]methyl}-1,3-oxazolidin-2-one]
IC50 [1]: ≤ 100 nM

Cc1cc(Nc2nccc(C(F)(F)F)n2)cc(-c2ccn(C)n2)c1 [Example 2.46, N-[3-methyl-5-(1-methyl-1H-pyrazol-3-yl)phenyl]-4-(trifluoromethyl)-pyrimidin-2-amine]
IC50 [1]: ≤ 100 nM

Cc1cc(Nc2nccc(C(F)F)n2)cc(-c2cnn(CCN)c2)c1 [Example 2.82, N-{3-[1-(2-aminoethyl)-1H-pyrazol-4-yl]-5-methylphenyl}-4-(difluoromethyl)pyrimidin-2-amine]
IC50 [1]: ≤ 100 nM

Cc1cc(Nc2nccc(C(F)(F)F)n2)cc(-n2cc(C(C)(O)c3ccc(C(=O)O)cc3)cn2)c1 (single isomer, unassigned) [Example 19.8, 4-{1-hydroxy-1-[1-(3-methyl-5-{[4-(trifluoromethyl)pyrimidin-2-yl]amino}phenyl)-1H-pyrazol-4-yl]ethyl}benzoic acid]
IC50 [1]: ≤ 100 nM

Cc1cc(Nc2nccc(C(F)F)n2)cc(-c2cnn(CC(O)c3ccccn3)c2)c1 (stereo not shown) [Example 5.26, 2-[4-(3-{[4-(difluoromethyl)pyrimidin-2-yl]amino}-5-methylphenyl)-1H-pyrazol-1-yl]-1-pyridin-2-ylethanol]
IC50 [1]: ≤ 100 nM

Cc1cc(Nc2nccc(C(F)(F)F)n2)cc(-c2cnn(C3CCNC(=O)CC3)c2)c1 (single isomer, unassigned) [14.1 (enantiomer 1)]
IC50 (read-out: rhSYK IC50): 28 nM

Cc1cc(Nc2cc(C(F)F)ccn2)nc(-c2cnn(CC3(O)CCC3)c2)c1 [Example 29.2, 1-{[4-(6-{[4-(difluoromethyl)pyridin-2-yl]amino}-4-methylpyridin-2-yl)-1H-pyrazol-1-yl]methyl}cyclobutanol]
IC50 [1]: ≤ 100 nM

Cc1cc(Nc2nccc(C(F)(F)F)n2)cc(-c2cnn(CC3(O)CCN(C(N)=O)CC3)c2)c1 [Example 17, 4-hydroxy-4-((4-(3-methyl-5-((4-(trifluoromethyl)pyrimidin-2-yl)amino)phenyl)-1H-pyrazol-1-yl)methyl)piperidine-1-carboxamide]
IC50 (read-out: rhSYK IC50): 13.9 nM
IC50 [1]: ≤ 100 nM

COc1ccnc(Nc2cccc(-c3cnn(C[C@H](O)C(=O)O)c3)c2)n1 [Example 11.4, (2S)-2-hydroxy-3-(4-{3-[(4-methoxy-pyrimidin-2-yl)-amino]phenyl}-1H-pyrazol-1-yl)-propanoic acid]
IC50 [1]: ≤ 100 nM

Cc1cc(Nc2nccc(C(F)(F)F)n2)cc(-c2cnn(CC(C)(O)C(N)=O)c2)c1 (stereo not shown) [Example 8.23, 2-hydroxy-2-methyl-3-[4-(3-methyl-5-{[4-(trifluoromethyl)-pyrimidin-2-yl]amino}-phenyl)-1H-pyrazol-1-yl]propanamide]
IC50 [1]: ≤ 100 nM

COC(=O)[C@@H](O)Cn1cc(-c2cc(C)cc(Nc3nccc(C(F)(F)F)n3)c2)cn1 [Example 5.2, methyl (2S)-2-hydroxy-3-[4-(3-methyl-5-{[4-(trifluoromethyl)-pyrimidin-2-yl]amino}phenyl)-1H-pyrazol-1-yl]propanoate]
IC50 [1]: ≤ 100 nM

Cc1cc(Nc2nccc(C(F)(F)F)n2)cc(-c2cnn(CC3(C)CNC(=O)O3)c2)c1 (stereo not shown) [Example 3.118, 5-methyl-5-{[4-(3-methyl-5-{[4-(trifluoromethyl)pyrimidin-2-yl]amino}phenyl)-1H-pyrazol-1-yl]methyl}-1,3-oxazolidin-2-one]
IC50 [1]: ≤ 100 nM

Cc1cc(Nc2nccc(C(F)(F)F)n2)cc(-c2cnn(C(C)c3ccc(C(=O)O)cc3)c2)c1 (stereo not shown) [Example 1.49, 4-{1-[4-(3-methyl-5-{[4-(trifluoromethyl)pyrimidin-2-yl]amino}phenyl)-1H-pyrazol-1-yl]ethyl}benzoic acid]
IC50 [1]: ≤ 100 nM

COCCNC(=O)[C@@H](O)Cn1cc(-c2cc(C)cc(Nc3nccc(C(F)(F)F)n3)c2)cn1 [Example 6.13, (2S)-2-hydroxy-N-(2-methoxyethyl)-3-[4-(3-methyl-5-{[4-(trifluorometh-yl)pyrimidin-2-yl]amino}phenyl)-1H-pyrazol-1-yl]propanamide]
IC50 [1]: ≤ 100 nM

Cc1cc(Nc2nccc(C(F)F)n2)cc(-c2cnn(CC3OC(=O)NC3CO)c2)c1 (single isomer, unassigned) [Example 33.3, 5-{[4-(3-{[4-(difluoromethyl)pyrimidin-2-yl]amino}-5-methylphenyl)-1H-pyrazol-1-yl]methyl}-4-(hydroxymethyl)-1,3-oxazolidin-2-one]
IC50 [1]: ≤ 100 nM

Cc1cc(Nc2nccc(C(F)(F)F)n2)cc(-c2cnn(CC3NC(=O)OC3C)c2)c1 (stereo not shown) [Example 3.107, 5-methyl-4-{[4-(3-methyl-5-{[4-(trifluoromethyl)pyrimidin-2-yl]amino}phenyl)-1H-pyrazol-1-yl]methyl}-1,3-oxazolidin-2-one]
IC50 [1]: ≤ 100 nM

Cc1cc(Nc2nccc(C(F)F)n2)cc(-c2cnn(C[C@]3(O)C[C@H](C#N)C3)c2)c1 [Example 5.40, trans-3-{[4-(3-{[4-(difluoromethyl)pyrimidin-2-yl]amino}-5-methylphenyl)-1H-pyrazol-1-yl]methyl}-3-hydroxycyclobutane-carbonitrile]
IC50 [1]: ≤ 100 nM

Cc1cc(Nc2nccc(C(F)F)n2)cc(-c2cnn(CC(C)(C)NC(=O)C3CC3)c2)c1 [Example 26.2, N-{2-[4-(3-{[4-(difluoromethyl)pyrimidin-2-yl]amino}-5-methylphenyl)-1H-pyrazol-1-yl]-1,1-dimethylethyl}cyclopropanecarboxamide]
IC50 [1]: ≤ 100 nM
